From PubChem BioAssay AID2060885 (Molecular Pharmacology Branch, DTP, NCI, 2025)
Several values for one entry are separate records, joined by “and”; a condition that tells them apart may be missing. Equal values may be shown once.

Tested on: NCI-H23 complex spheroids with HUVEC/MSC, viability
Assay: Anticancer human tumor NCI-H23 cell line growth inhibition [RAS];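 further: spheroids exposed to compound for 7 days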;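 on viability, T/C: 100% = DMSO vehicle control viability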
Conditions: for viability, T/C: stronger effect = lower value
In short: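 Agents were tested in combination matrices in half-log decrements from a top concentration at or near clinical Cmax (10 microM if undetermined). Targets were multi-cell spheroids of tumour lines plus HUVEC and MSC stromal cells.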

CCC(CC)c1cc(NC2CCC(N)C2)n2nccc2n1 (stereo not given) + C=CC(=O)N1CCN(c2nc(OCC3CCCN3C)nc3c(F)c(-c4nc(N)cc(C)c4C(F)(F)F)c(Cl)cc23)C(C)C1 was tested, and the IC50 (curve of first compound, second compound 0.00316 µM) was 1010 nM, the IC50 (curve of first compound, second compound 0.01 µM) was 557 nM and the IC50 (curve of first compound, second compound 0.0316 µM) was less than 31.6 nM. It also gave an IC50 (curve of first compound, second compound 0.1 µM) of less than 31.6 nM, an IC50 (curve of first compound, second compound 0.316 µM) of less than 31.6 nM and an IC50 (curve of first compound, second compound 1 µM) of less than 31.6 nM. The viability, T/C (second compound 0.00316 µM, first compound 0.0316 µM) was 64.8%, the viability, T/C (second compound 0.00316 µM, first compound 0.1 µM) was 75.2% and the viability, T/C (second compound 0.00316 µM, first compound 0.316 µM) was 57.1%. It also gave a viability, T/C (second compound 0.00316 µM, first compound 1 µM) of 51.4%, a viability, T/C (second compound 0.00316 µM, first compound 3.16 µM) of 5.05% and a viability, T/C (second compound 0.00316 µM, first compound 10 µM) of 0.45%. The viability, T/C (second compound 0.01 µM, first compound 0.0316 µM) was 52.7%, the viability, T/C (second compound 0.01 µM, first compound 0.1 µM) was 62.7% and the viability, T/C (second compound 0.01 µM, first compound 0.316 µM) was 55.2%. For the same compound, the viability, T/C (second compound 0.01 µM, first compound 1 µM) was 43.2%, the viability, T/C (second compound 0.01 µM, first compound 3.16 µM) was 4.13% and the viability, T/C (second compound 0.01 µM, first compound 10 µM) was 0.6%. For the same compound, the viability, T/C (second compound 0.0316 µM, first compound 0.0316 µM) was 44.7%, the viability, T/C (second compound 0.0316 µM, first compound 0.1 µM) was 47.1% and the viability, T/C (second compound 0.0316 µM, first compound 0.316 µM) was 42.9%. The viability, T/C (second compound 0.0316 µM, first compound 1 µM) was 36.5%, the viability, T/C (second compound 0.0316 µM, first compound 3.16 µM) was 3.39% and the viability, T/C (second compound 0.0316 µM, first compound 10 µM) was 0.5%. The viability, T/C (second compound 0.1 µM, first compound 0.0316 µM) was 39.3%, the viability, T/C (second compound 0.1 µM, first compound 0.1 µM) was 50.3% and the viability, T/C (second compound 0.1 µM, first compound 0.316 µM) was 38.7%. For the same compound, the viability, T/C (second compound 0.1 µM, first compound 1 µM) was 36.5%, the viability, T/C (second compound 0.1 µM, first compound 3.16 µM) was 2.7% and the viability, T/C (second compound 0.1 µM, first compound 10 µM) was 0.48%. It also gave a viability, T/C (second compound 0.316 µM, first compound 0.0316 µM) of 36.2%, a viability, T/C (second compound 0.316 µM, first compound 0.1 µM) of 37.8% and a viability, T/C (second compound 0.316 µM, first compound 0.316 µM) of 39.9%. The viability, T/C (second compound 0.316 µM, first compound 1 µM) was 36.7%, the viability, T/C (second compound 0.316 µM, first compound 3.16 µM) was 4.1% and the viability, T/C (second compound 0.316 µM, first compound 10 µM) was 0.41%. For the same compound, the viability, T/C (second compound 1 µM, first compound 0.0316 µM) was 34.6%, the viability, T/C (second compound 1 µM, first compound 0.1 µM) was 42.8% and the viability, T/C (second compound 1 µM, first compound 0.316 µM) was 41.1%. The viability, T/C (second compound 1 µM, first compound 1 µM) was 38.5%, the viability, T/C (second compound 1 µM, first compound 3.16 µM) was 4.68% and the viability, T/C (second compound 1 µM, first compound 10 µM) was 0.53%.

CCc1c2c(nc3ccc(O)cc13)-c1cc3c(c(=O)n1C2)COC(=O)[C@]3(O)CC + CCn1c(-c2cccnc2C(C)OC)c2c3cc(ccc31)N1CCOC(CC(NC(=O)C(C(C)C)N(C)C(=O)C3(F)CCN(C(=O)C#CC(C)(C)N(C)C)CC3)C(=O)N3CCCC(N3)C(=O)OCC(C)(C)C2)C1 showed an IC50 (curve of first compound, second compound 0.000949 µM) of less than 0.949 nM, an IC50 (curve of first compound, second compound 0.003 µM) of less than 0.949 nM and an IC50 (curve of first compound, second compound 0.00949 µM) of less than 0.949 nM. For the same compound, the IC50 (curve of first compound, second compound 0.03 µM) was less than 0.949 nM, the IC50 (curve of first compound, second compound 0.0949 µM) was less than 0.949 nM and the IC50 (curve of first compound, second compound 0.3 µM) was less than 0.949 nM. For the same compound, the viability, T/C (second compound 0.000949 µM, first compound 0.000949 µM) was 27.9%, the viability, T/C (second compound 0.000949 µM, first compound 0.003 µM) was 13.4% and the viability, T/C (second compound 0.000949 µM, first compound 0.00949 µM) was 3.4%. The viability, T/C (second compound 0.000949 µM, first compound 0.03 µM) was 2.46%, the viability, T/C (second compound 0.000949 µM, first compound 0.0949 µM) was 1.53% and the viability, T/C (second compound 0.000949 µM, first compound 0.3 µM) was 0.79%. The viability, T/C (second compound 0.003 µM, first compound 0.000949 µM) was 23.4%, the viability, T/C (second compound 0.003 µM, first compound 0.003 µM) was 12.6% and the viability, T/C (second compound 0.003 µM, first compound 0.00949 µM) was 3.29%. The viability, T/C (second compound 0.003 µM, first compound 0.03 µM) was 1.82%, the viability, T/C (second compound 0.003 µM, first compound 0.0949 µM) was 1.53% and the viability, T/C (second compound 0.003 µM, first compound 0.3 µM) was 0.91%. For the same compound, the viability, T/C (second compound 0.00949 µM, first compound 0.000949 µM) was 27.1%, the viability, T/C (second compound 0.00949 µM, first compound 0.003 µM) was 11.9% and the viability, T/C (second compound 0.00949 µM, first compound 0.00949 µM) was 3.95%. The viability, T/C (second compound 0.00949 µM, first compound 0.03 µM) was 2.01%, the viability, T/C (second compound 0.00949 µM, first compound 0.0949 µM) was 1.54% and the viability, T/C (second compound 0.00949 µM, first compound 0.3 µM) was 0.96%. For the same compound, the viability, T/C (second compound 0.03 µM, first compound 0.000949 µM) was 25.5%, the viability, T/C (second compound 0.03 µM, first compound 0.003 µM) was 12.3% and the viability, T/C (second compound 0.03 µM, first compound 0.00949 µM) was 3.53%. The viability, T/C (second compound 0.03 µM, first compound 0.03 µM) was 2.17%, the viability, T/C (second compound 0.03 µM, first compound 0.0949 µM) was 1.25% and the viability, T/C (second compound 0.03 µM, first compound 0.3 µM) was 0.77%. The viability, T/C (second compound 0.0949 µM, first compound 0.000949 µM) was 23.6%, the viability, T/C (second compound 0.0949 µM, first compound 0.003 µM) was 8.82% and the viability, T/C (second compound 0.0949 µM, first compound 0.00949 µM) was 3.56%. It also gave a viability, T/C (second compound 0.0949 µM, first compound 0.03 µM) of 1.45%, a viability, T/C (second compound 0.0949 µM, first compound 0.0949 µM) of 0.88% and a viability, T/C (second compound 0.0949 µM, first compound 0.3 µM) of 0.84%. It also gave a viability, T/C (second compound 0.3 µM, first compound 0.000949 µM) of 18.7%, a viability, T/C (second compound 0.3 µM, first compound 0.003 µM) of 7.22% and a viability, T/C (second compound 0.3 µM, first compound 0.00949 µM) of 2.67%. For the same compound, the viability, T/C (second compound 0.3 µM, first compound 0.03 µM) was 1.54%, the viability, T/C (second compound 0.3 µM, first compound 0.0949 µM) was 1.11% and the viability, T/C (second compound 0.3 µM, first compound 0.3 µM) was 1.43%.

For CC(C)n1nc(-c2ccc3oc(N)nc3c2)c2c(N)ncnc21, the viability, T/C (compound 0.000316 µM) was 102% and 105% (2×) and 106%, the viability, T/C (compound 0.00316 µM) was 88.6% [middle of 4 runs] and the viability, T/C (compound 0.01 µM) was 83% [middle of 4 runs]. For the same compound, the viability, T/C (compound 0.0316 µM) was 61.7% [middle of 4 runs], the viability, T/C (compound 0.1 µM) was 53.8% [middle of 4 runs] and the IC50 (curve of compound) was 83.1 nM and > 100 nM and 67 nM.
